In patent publication US20230123334A1, “AMINO LIPID COMPOUND, PREPARATION METHOD THEREFOR, AND APPLICATION THEREOF” (SHENZHEN SHENXIN BIOTECHNOLOGY CO., LTD., priority 2020, published 2023):

Legend:
[1] = Particle size and PDI of lipid nanoparticles (Nano-ZSZEN3600, Malvern); format: physicochemical; conditions: LNPs; for Particle size (nm): Fluc mRNA
Method: (§1) The amino lipid compound of the invention was mixed with DOPE, cholesterol and PEG2000-DMG in a molar ratio of 45:10:42.5:2.5, and dissolved in absolute ethanol such that the molar concentration of the amino lipid compound was 0.001-0.01 mmol/L. By using a microinjection pump, the resultant ethanol solution and a sodium acetate solution (50 mM, pH=4.0) in which luciferase mRNA (Fluc mRNA, TriLink) was dissolved were mixed in a volume ratio of 1:3 in a microchannel chip to prepare a crude solution of lipid nanoparticles, which was then dialyzed in 1×PBS at a controlled temperature of 4° C. for 6 h using a dialysis box (Fisher, MWCO 20,000) and filtered through a 0.22 μm microporous filter membrane before use. The mass ratio of the amino lipid compound to Fluc mRNA was about 10:1. The resultant solution of lipid nanoparticles (LNPs) was administered to the tested animals by subcutaneous administration.
Characterization of particle size: the particle size and PDI of the prepared lipid nanoparticles were determined by Nano-ZSZEN3600 (Malvern). 40 uL of LNP solution was taken for particle size measurement with circulation for three times, 30 s for each circulation.
(§2) The preparation method was the same as Formulation method 1, except that amino lipid compound, DSPC, cholesterol and PEG2000-DMG were used in a molar ratio of 50:10:38.5: 1.5. The resultant solution of lipid nanoparticles (LNPs) was administered to the tested animals by tail vein and intramuscular injection.

[2] = Encapsulation rate of LNP RNA (Qubit RNA HS Assay kit); format: physicochemical; conditions: LNPs
Method: as §1
Detection of encapsulation rate: the concentration of LNP RNA was detected by Qubit® RNA HS Assay kit. The theoretical RNA concentration was given by the total amount of RNA input divided by the total volume of the final solution.
as §2

BALB/c mice [3] = test: In vivo delivery of luciferase mRNA (Fluc mRNA) by lipid nanoparticles, in vivo imaging; conditions: 0.5 mg/kg Fluc mRNA, after 12 hours
Method: as §1, §2
(§3) Animal Preparation: 6-week aged female BALB/c mice weighed about 20 g were selected and fed in a SPF-grade feeding room. Animal tests were conducted strictly according to the guidelines of national health institutions and the requirements of animal ethics.
In vivo delivery: 9 mice were assigned randomly to each group, and the lipid nanoparticle solution was injected by three routes of administration, i.e., subcutaneous, intramuscular and tail vein injection at a dosage of 0.5 mg/kg Fluc mRNA (3 mice for each route of administration). After 12 hours, 200 μL of 10 mg/mL potassium salt of […] (PerkinElmer) was injected into each mouse through the tail vein. After 10 min, the mice were placed under an in vivo imaging system (IVIS-200, Xenogen) to observe the total fluorescence intensity of each mouse and take photographs for record. The expression intensity of Fluc mRNA delivered by representative amino lipid compounds through the three routes of administration are shown in Table 5-7. DLin-MC3 was used as control.

BALB/c mice [4] = test: In vivo delivery of ovalbumin mRNA (OVA mRNA) and immunity, IgG antibody titer by ELISA; conditions: OVA mRNA LNPs 0.5 mg/kg Day 0 and Day 7, serum Day 21, versus DLin-MC3 control, FIG. 1
Method: The amino lipid compound of the invention was mixed with DOPE, cholesterol and PEG2000-DMG in a molar ratio of 50:10:38.5:1.5 and dissolved in absolute ethanol such that the molar concentration of the amino lipid compound was 0.001-0.01 mmol/L. Ovalbumin mRNA (OVA mRNA, TriLink) was dissolved in sodium acetate solution (50 mM, pH=4.0). By using a microinjection pump, the resultant ethanol solution and sodium acetate solution (50 mM, pH=4.0) were mixed in a volume ratio of 1:3 in a microchannel chip to prepare a crude solution of lipid nanoparticles, which was then dialyzed in 1×PBS at a controlled temperature of 4° C. for 6 h using a dialysis box (Fisher, MWCO 20,000), and filtered through a 0.22 μm microporous filter membrane before use. The mass ratio of the amino lipid compound to ovalbumin mRNA (OVA mRNA) was about 10:1.
as §3
In vivo delivery: 3 mice were assigned randomly to each group, and the lipid nanoparticle solution was intramuscularly injected into the leg at a dosage of 0.5 mg/kg mRNA (Day 0). After 7 days, one booster injection was performed at the same dosage (Day 7). On Day 21, blood was taken from the tail vein for serological analysis. DLin-MC3 was used as control (FIG. 1).
Enzyme-linked immunosorbent assay (ELISA): a flat-bottomed 96-well plate (Nunc) was pre-coated, with a concentration of OVA protein of 0.5 μg protein per well in 50 mM carbonate buffer (pH 9.6), and was allowed to stay overnight at 4° C. and then blocked with 5% glycine. Serum obtained from animals receiving the lipid nanoparticle solution containing the mRNA was diluted from 10^2 to 10^6 times with PBS-0.05% Tween (PBS-T) at pH 7.4, and added to the wells, incubated at room temperature and placed at 37° C. for 1 h. Horseradish peroxidase (HRP, Invitrogen) coupled goat anti-mouse IgG was used for labeling in PBS-T-1% BSA at a dilution rate of 1:10,000. After addition of the HRP substrate, the absorbance at 450 nm was measured in ELISA microplate reader (Bio-Rad).

[5] = Formulation Method 1 (amino lipid:DOPE:cholesterol:PEG2000-DMG 45:10:42.5:2.5)
[6] = Formulation method 2 (amino lipid:DSPC:cholesterol:PEG2000-DMG 50:10:38.5:1.5)

Structure (SMILES) | PDI ([1]; Formulation Method 1) | Particle size (nm) [1, 5] [nm] | PDI ([1]; Formulation method 2) | Particle size (nm) [1, 6] [nm] | Encapsulation rate ([2]; Formulation Method 1) [%] | Encapsulation rate ([2]; Formulation method 2) [%] | Fluorescence intensity (expression intensity of Fluc mRNA) (BALB/c mice [3]; intramuscular administration) | Fluorescence intensity (expression intensity of Fluc mRNA) (BALB/c mice [3]; subcutaneous administration) | Fluorescence intensity (expression intensity of Fluc mRNA) (BALB/c mice [3]; tail vein administration) | IgG antibody titer (BALB/c mice [4])
CCCCCCCC/C=C\CCCCCCCCSc1nc(OCCN2CCCC2)nc(SCCCCCCCCC)n1 [Compound S19S9O8] | 0.02 | 88 ± 5 | 0.03 | 88 ± 5 | 99.6 | 99.2 | 9.1E+07 | 1.1E+07 | 1.1E+08 | significantly superior to that of the control
CCCCCCCCCCCCCCCCCCSc1nc(NCCN2CCCC2)nc(SCCCCCCC)n1 [Compound S7S18D3] | 0.10 | 121 ± 5 | 0.04 | 95 ± 5 | 99.5 | 99.3 | 8.7E+07 | 2.9E+08 | 8.1E+07 | significantly superior to that of the control
CCCCCCCC/C=C\CCCCCCCCSc1nc(OCC2CCN(C)CC2)nc(SCCCCCCCCC)n1 [Compound S19S9O9] | 0.04 | 110 ± 5 | 0.05 | 110 ± 5 | 99.2 | 99.0 | 1.8E+07 | 2.8E+07 | 3.1E+07 | significantly superior to that of the control
CCCCCCCCCCCCCCCCSc1nc(NCCCCCCC)nc(NCCCN2CCN(C)CC2)n1 [Compound S16N7D9] | 0.01 | 102 ± 5 | 0.05 | 92 ± 5 | 98.6 | 99.2 | 4.3E+07 | 1.4E+07 | 5.1E+07 | significantly superior to that of the control
